Test results published in PubChem BioAssay AID2060492 (Molecular Pharmacology Branch, DTP, NCI, 2025).
pIC50: −log10 of the molar value.

System: 695427-040-R-J1-PDC complex spheroids, viability percent T/C
Assay: Anticancer human tumor 695427-040-R-J1-PDC patient-derived colon adenocarcinoma cell line growth inhibition [GQUAD]
Settings: for pIC50: curve of first compound; for viability, T/C: stronger effect = lower value
In short: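 Multi-cell-type spheroids of tumor cells with HUVEC and mesenchymal stem cells, treated with drug combinations. Concentrations descend in half-log steps from near clinical Cmax, or from 10 microM where Cmax is unknown; viability read-out.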

[1] = second compound 0.0316 µM, first compound 0.0316 µM
[2] = second compound 0.0316 µM, first compound 0.1 µM
[3] = second compound 0.0316 µM, first compound 0.316 µM
[4] = second compound 0.0316 µM, first compound 1 µM
[5] = second compound 0.0316 µM, first compound 3.16 µM
[6] = second compound 0.0316 µM, first compound 10 µM
[7] = second compound 0.1 µM, first compound 0.0316 µM
[8] = second compound 0.1 µM, first compound 0.1 µM
[9] = second compound 0.1 µM, first compound 0.316 µM
[10] = second compound 0.1 µM, first compound 1 µM
[11] = second compound 0.1 µM, first compound 3.16 µM
[12] = second compound 0.1 µM, first compound 10 µM
[13] = second compound 0.316 µM, first compound 0.0316 µM
[14] = second compound 0.316 µM, first compound 0.1 µM
[15] = second compound 0.316 µM, first compound 0.316 µM
[16] = second compound 0.316 µM, first compound 1 µM
[17] = second compound 0.316 µM, first compound 3.16 µM
[18] = second compound 0.316 µM, first compound 10 µM
[19] = second compound 1 µM, first compound 0.0316 µM
[20] = second compound 1 µM, first compound 0.1 µM
[21] = second compound 1 µM, first compound 0.316 µM
[22] = second compound 1 µM, first compound 1 µM
[23] = second compound 1 µM, first compound 3.16 µM
[24] = second compound 1 µM, first compound 10 µM
[25] = second compound 3.16 µM, first compound 0.0316 µM
[26] = second compound 3.16 µM, first compound 0.1 µM
[27] = second compound 3.16 µM, first compound 0.316 µM
[28] = second compound 3.16 µM, first compound 1 µM
[29] = second compound 3.16 µM, first compound 3.16 µM
[30] = second compound 3.16 µM, first compound 10 µM
[31] = second compound 10 µM, first compound 0.0316 µM
[32] = second compound 10 µM, first compound 0.1 µM
[33] = second compound 10 µM, first compound 0.316 µM
[34] = second compound 10 µM, first compound 1 µM
[35] = second compound 10 µM, first compound 3.16 µM
[36] = second compound 10 µM, first compound 10 µM
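Note: spheroids exposed to compounds for seven days before readout.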

## COc1cccc2c1C(=O)c1c(O)c3c(c(O)c1C2=O)CC(O)(C(=O)CO)CC3OC1CC(N)C(O)C(C)O1 (stereo not drawn) + CN(C)c1ccc(Nc2c3ccc(NC(=O)CCN4CCCC4)cc3nc3cc(NC(=O)CCN4CCCC4)ccc23)cc1
Second compound 0.0316 µM
  pIC50: 5.02
Second compound 0.1 µM
  pIC50: < 5.00
Second compound 0.316 µM
  pIC50: < 5.00
Second compound 1 µM
  pIC50: 5.00
Second compound 3.16 µM
  pIC50: 5.09
Second compound 10 µM
  pIC50: < 5.00
[1]
  viability, T/C: 97%
[2]
  viability, T/C: 86.8%
[3]
  viability, T/C: 90.3%
[4]
  viability, T/C: 82.3%
[5]
  viability, T/C: 63.1%
[6]
  viability, T/C: 49.7%
[7]
  viability, T/C: 102%
[8]
  viability, T/C: 92%
[9]
  viability, T/C: 85.9%
[10]
  viability, T/C: 81.3%
[11]
  viability, T/C: 66.6%
[12]
  viability, T/C: 53.2%
[13]
  viability, T/C: 93.2%
[14]
  viability, T/C: 89.4%
[15]
  viability, T/C: 90.2%
[16]
  viability, T/C: 80.5%
[17]
  viability, T/C: 63.8%
[18]
  viability, T/C: 50.1%
[19]
  viability, T/C: 90.6%
[20]
  viability, T/C: 87.2%
[21]
  viability, T/C: 81.5%
[22]
  viability, T/C: 78.3%
[23]
  viability, T/C: 69.3%
[24]
  viability, T/C: 49.4%
[25]
  viability, T/C: 97.1%
[26]
  viability, T/C: 87.2%
[27]
  viability, T/C: 87.6%
[28]
  viability, T/C: 77.9%
[29]
  viability, T/C: 65.5%
[30]
  viability, T/C: 46%
[31]
  viability, T/C: 89.2%
[32]
  viability, T/C: 84.6%
[33]
  viability, T/C: 81.8%
[34]
  viability, T/C: 76.1%
[35]
  viability, T/C: 68.2%
[36]
  viability, T/C: 52.3%

## CC1COCCN1c1cc(C2(O)CC3CCC(C2)O3)c2cnn(-c3ccn[nH]3)c2n1 (stereo not drawn) + Cc1cnc(CNC(=O)c2c(=O)c3ccc(N4CCCN(C)CC4)nc3n3c2sc2ccccc23)cn1
Second compound 0.0316 µM
  pIC50: 6.56
Second compound 0.1 µM
  pIC50: 6.66
Second compound 0.316 µM
  pIC50: 7.04
Second compound 1 µM
  pIC50: > 7.50
Second compound 3.16 µM
  pIC50: > 7.50
Second compound 10 µM
  pIC50: > 7.50
[1]
  viability, T/C: 75.1%
[2]
  viability, T/C: 63%
[3]
  viability, T/C: 49.8%
[4]
  viability, T/C: 31.1%
[5]
  viability, T/C: 26%
[6]
  viability, T/C: 18.1%
[7]
  viability, T/C: 79%
[8]
  viability, T/C: 57%
[9]
  viability, T/C: 47%
[10]
  viability, T/C: 34.1%
[11]
  viability, T/C: 30.3%
[12]
  viability, T/C: 20.9%
[13]
  viability, T/C: 81.7%
[14]
  viability, T/C: 41.3%
[15]
  viability, T/C: 40.2%
[16]
  viability, T/C: 26.8%
[17]
  viability, T/C: 26.4%
[18]
  viability, T/C: 18.4%
[19]
  viability, T/C: 38.5%
[20]
  viability, T/C: 41.1%
[21]
  viability, T/C: 31.5%
[22]
  viability, T/C: 29.7%
[23]
  viability, T/C: 28.2%
[24]
  viability, T/C: 14.3%
[25]
  viability, T/C: 30.2%
[26]
  viability, T/C: 35%
[27]
  viability, T/C: 28.5%
[28]
  viability, T/C: 16.9%
[29]
  viability, T/C: 19.5%
[30]
  viability, T/C: 4.04%
[31]
  viability, T/C: 22.1%
[32]
  viability, T/C: 22.2%
[33]
  viability, T/C: 19.3%
[34]
  viability, T/C: 15.2%
[35]
  viability, T/C: 8.74%
[36]
  viability, T/C: 0.42%

## O=C(c1cc(Cc2n[nH]c(=O)c3ccccc23)ccc1F)N1CCN(C(=O)C2CC2)CC1 + CN(C)c1ccc(Nc2c3ccc(NC(=O)CCN4CCCC4)cc3nc3cc(NC(=O)CCN4CCCC4)ccc23)cc1
Second compound 0.0316 µM
  pIC50: < 5.00
Second compound 0.1 µM
  pIC50: < 5.00
Second compound 0.316 µM
  pIC50: < 5.00
Second compound 1 µM
  pIC50: < 5.00
Second compound 3.16 µM
  pIC50: < 5.00
Second compound 10 µM
  pIC50: < 5.00
[1]
  viability, T/C: 111%
[2]
  viability, T/C: 100%
[3]
  viability, T/C: 93.4%
[4]
  viability, T/C: 102%
[5]
  viability, T/C: 107%
[6]
  viability, T/C: 90.8%
[7]
  viability, T/C: 107%
[8]
  viability, T/C: 94.2%
[9]
  viability, T/C: 104%
[10]
  viability, T/C: 95.9%
[11]
  viability, T/C: 103%
[12]
  viability, T/C: 96%
[13]
  viability, T/C: 99.2%
[14]
  viability, T/C: 89.1%
[15]
  viability, T/C: 95.9%
[16]
  viability, T/C: 98.9%
[17]
  viability, T/C: 100%
[18]
  viability, T/C: 97.2%
[19]
  viability, T/C: 93.2%
[20]
  viability, T/C: 88.7%
[21]
  viability, T/C: 98.5%
[22]
  viability, T/C: 93.6%
[23]
  viability, T/C: 113%
[24]
  viability, T/C: 89.9%
[25]
  viability, T/C: 97.1%
[26]
  viability, T/C: 90.7%
[27]
  viability, T/C: 92.5%
[28]
  viability, T/C: 89.3%
[29]
  viability, T/C: 103%
[30]
  viability, T/C: 92%
[31]
  viability, T/C: 91.1%
[32]
  viability, T/C: 84.6%
[33]
  viability, T/C: 88%
[34]
  viability, T/C: 82.9%
[35]
  viability, T/C: 96.2%
[36]
  viability, T/C: 90.6%

## C=CC(=O)N1CCN(c2nc(=O)n(-c3c(C)ccnc3C(C)C)c3nc(-c4c(O)cccc4F)c(F)cc23)C(C)C1 (stereo not drawn) + CN(C)c1ccc(Nc2c3ccc(NC(=O)CCN4CCCC4)cc3nc3cc(NC(=O)CCN4CCCC4)ccc23)cc1
Second compound 0.0316 µM
  pIC50: < 5.00
Second compound 0.1 µM
  pIC50: < 5.00
Second compound 0.316 µM
  pIC50: < 5.00
Second compound 1 µM
  pIC50: < 5.00
Second compound 3.16 µM
  pIC50: < 5.00
Second compound 10 µM
  pIC50: < 5.00
[1]
  viability, T/C: 107%
[2]
  viability, T/C: 109%
[3]
  viability, T/C: 102%
[4]
  viability, T/C: 104%
[5]
  viability, T/C: 106%
[6]
  viability, T/C: 112%
[7]
  viability, T/C: 104%
[8]
  viability, T/C: 95%
[9]
  viability, T/C: 104%
[10]
  viability, T/C: 94.6%
[11]
  viability, T/C: 103%
[12]
  viability, T/C: 110%
[13]
  viability, T/C: 113%
[14]
  viability, T/C: 113%
[15]
  viability, T/C: 107%
[16]
  viability, T/C: 102%
[17]
  viability, T/C: 106%
[18]
  viability, T/C: 108%
[19]
  viability, T/C: 97.9%
[20]
  viability, T/C: 106%
[21]
  viability, T/C: 99.7%
[22]
  viability, T/C: 107%
[23]
  viability, T/C: 108%
[24]
  viability, T/C: 107%
[25]
  viability, T/C: 107%
[26]
  viability, T/C: 90.9%
[27]
  viability, T/C: 100%
[28]
  viability, T/C: 98.5%
[29]
  viability, T/C: 101%
[30]
  viability, T/C: 100%
[31]
  viability, T/C: 99.2%
[32]
  viability, T/C: 89.7%
[33]
  viability, T/C: 89.7%
[34]
  viability, T/C: 92%
[35]
  viability, T/C: 99.1%
[36]
  viability, T/C: 90.6%
